Results as given in PMC3499586, “Heterotrimeric G-protein Signaling Is Critical to Pathogenic Processes in Entamoeba histolytica” (PLoS Pathogens, 2012).

T1: EhRGS-RhoGEF (E. histolytica, UniProt C4LYV4 1-519)
T1 chain: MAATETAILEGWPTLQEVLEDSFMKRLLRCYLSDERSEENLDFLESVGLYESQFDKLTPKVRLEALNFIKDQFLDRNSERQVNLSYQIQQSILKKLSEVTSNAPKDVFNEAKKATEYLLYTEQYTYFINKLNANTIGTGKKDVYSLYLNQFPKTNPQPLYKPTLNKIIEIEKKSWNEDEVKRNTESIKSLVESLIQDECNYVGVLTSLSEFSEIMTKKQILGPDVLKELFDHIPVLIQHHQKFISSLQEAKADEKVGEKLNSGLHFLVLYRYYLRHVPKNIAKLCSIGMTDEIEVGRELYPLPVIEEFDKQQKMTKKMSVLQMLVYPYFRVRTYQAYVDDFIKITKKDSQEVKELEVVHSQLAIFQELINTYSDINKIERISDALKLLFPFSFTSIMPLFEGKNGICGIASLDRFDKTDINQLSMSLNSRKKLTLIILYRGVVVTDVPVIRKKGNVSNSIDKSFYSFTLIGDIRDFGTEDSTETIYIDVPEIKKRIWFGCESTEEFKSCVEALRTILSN

B1: EhGα1 (recombinant, purified from E. coli) (natural protein)
chain: MGCGQSKDNSIDKQIVEMAKSKPITVMLLGSGESGKSTIAKQLKILFGGGFPEQERATHKSSICSNVVTCMRTLIEQSAILNHPMKYQPKSKEFTTEDPVTLPFSPELVGDVEALWADEGIQATYEESAKFQLPDCAKYLFENVKRIAMEDYVPTEEDLIHNRTKTTGIHEYDFVVKDIPFHLIDVGGQRSERKKWVSFFSDVDCAIFVTSLAEYDMKLYEDGNTSRLTESIAVFKDIMTNEFLKGAVKLIFLNKMDLFEEKLTKVPLNTIFPEYTGGDNAVMGAQYIQQLFTGKLQTEEMNISGADGTANIEGAVNEKVYTNPTNATDGSNIKRVFMLAVDVIMKNMAANGKMRPTK

Experiments:
human Gαi1 = biological target: T2, human Gαi1 (Homo sapiens, UniProt P63096); assay: […]GTPγS radionucleotide binding; conditions: 30 °C; association limited by spontaneous GDP release; labelled compound; a rate, not an affinity; figure legend gives 0.06 ±0.01
T2 construct: gene GNAI1; purified protein; details not in main text

EhGα1 = biological target: T3, EhGα1 (Entamoeba histolytica, UniProt C4M483); assay: […]GTPγS radionucleotide binding; conditions: 30 °C; association limited by spontaneous GDP release; labelled compound; a rate, not an affinity
T3 construct: gene EHI_140350; E. coli; N-terminal TEV-cleavable His6 tag; HM-1:IMSS used for trophozoite work

EhRGS-RhoGEF = biological target: T1, EhRGS-RhoGEF; assay: SPR

T2 sequence (P63096 2-354): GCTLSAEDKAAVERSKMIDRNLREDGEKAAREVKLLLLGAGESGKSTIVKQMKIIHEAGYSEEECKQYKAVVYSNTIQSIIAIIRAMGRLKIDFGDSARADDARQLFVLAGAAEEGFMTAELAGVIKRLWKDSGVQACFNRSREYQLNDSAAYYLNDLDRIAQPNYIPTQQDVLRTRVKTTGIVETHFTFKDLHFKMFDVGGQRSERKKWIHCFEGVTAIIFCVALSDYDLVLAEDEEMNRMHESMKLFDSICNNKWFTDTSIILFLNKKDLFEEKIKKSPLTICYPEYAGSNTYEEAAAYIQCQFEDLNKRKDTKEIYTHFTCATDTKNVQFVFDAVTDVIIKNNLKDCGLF

Row | Molecule | kobs (human Gαi1) [min⁻¹] | kobs (EhGα1) [min⁻¹] | Kd (EhRGS-RhoGEF) [nM]
1 | Nc1nc2c(ncn2[C@@H]2O[C@H](COP(=O)(O)OP(=O)(O)OP(O)(O)=S)[C@@H](O)[C@H]2O)c(=O)[nH]1 [GTPγS] | 0.064 | 0.27 ± 0.06 | 
2 | B1 |  |  | 2100
